Data as given in ChEMBL document CHEMBL3507680, “University of Dundee, Gates Library screen for HepG2 cell viability”.

Test: Human HepG2 cell viability assay in 384 well format
Format: toxicity, cell-based
Parameters: dose 125 nL, time 70.5 hour; cytotoxicity at 70.5 h: concentration not given beside the values
Conditions: HepG2 cells, read-out: Inhibition

| SMILES | cytotoxicity at 70.5 h [%] |
| --- | --- |
| CC(C)NC(=O)N1CC[C@@H]2CN(Cc3cccc(Cl)c3)S(=O)(=O)[C@@H]2CC1 | 27 |
| Cc1ccc(NC2CCN(C(=O)c3ccco3)CC2)nn1 | 11.9 |
| COCCN(Cc1ccc(F)cc1Cl)C(=O)c1ccc(=O)[nH]n1 | -3.15 |
| Cc1cc(-n2c(C)cn(CN(C)Cc3ccccc3)c2=O)no1 | -5.85 |
| CCN(CC)CCn1ccnc1-c1cccc(O)c1 | 1.22 |
| O=C(NCCc1cc(=O)[nH]cn1)c1[nH]nc2c1CCCC2 | -5.79 |
| Cc1noc(C2CCC3(CCN(C(=O)c4sccc4C)CC3)O2)n1 (stereo unspecified) | -4 |
| Cc1cc(CN2C[C@@H]3COC[C@]3(CN(C)C)C2)no1 | -6.11 |
| Cn1cnc(S(=O)(=O)NCC(C)(O)c2ccc3c(c2)OCO3)c1 (stereo unspecified) | -6.14 |
| Cn1ccnc1CN1C[C@@H](CN2CCCC2)[C@@H](CO)C1 | -5.13 |
| CCCN1CCC(CC(=O)N2CCC(C(O)c3nccn3C)CC2)CC1 (stereo unspecified) | -11.6 |
| CN(Cc1nc(Cc2cccc(C(F)(F)F)c2)no1)C(C1CC1)C1CC1 | -9.87 |
| O=C1[C@@H]2CN(Cc3cc4ccccc4o3)C[C@]2(C(=O)O)CN1CC1CC1 | -4.85 |
| Cn1cnc2c1C(COCC1CCOCC1)CN(C(=O)C1CC=CC1)C2 (stereo unspecified) | -2.11 |
| Cc1ccc(OC2(C(=O)NC(C)Cc3ccsc3)CCNCC2)cc1 (stereo unspecified) | 7.16 |
| CCOc1ncccc1CNC(=O)CN1CCCCCC1=O | 19.7 |
| CCc1noc(C)c1-c1nc(Cc2cccs2)nn1C1CCN(C)CC1 | -1.49 |
| CO[C@H]1CN(Cc2ccc(C)o2)[C@@H]2CCCO[C@H]12 | 13.3 |
| CC(NC(=O)NCc1ccoc1)c1ccc2c(c1)CCC(=O)N2 (stereo unspecified) | 14.8 |
| CNc1ccnc(NCCC(=O)Nc2ccccc2OC)n1 | -3.36 |
| CC1=CCN(S(=O)(=O)c2cccc(C(=O)N3CCCN(C)CC3)c2)CC1 | -10.6 |
| N#Cc1cccnc1N1CCC(OCc2ccccc2)CC1 | -8.71 |
| Cc1csc2cc(C(=O)NC3CC3)cnc12 | -1.57 |

| SMILES | cytotoxicity at 70.5 h [%] |
| --- | --- |
| O=C(NCC(c1ccc(F)cc1)N1CCOCC1)Nc1cn[nH]c1 (stereo unspecified) | 18.9 |
| Cn1cnnc1C1CCCN(C(=O)Cc2ccc3c(c2)OCCO3)C1 (stereo unspecified) | 0.026 |
| Cc1cc(=O)n2ncnc2n1CC(O)c1ccccc1 (stereo unspecified) | -17.2 |
| Cc1nc(C)n(CC2CCCN(CC(=O)Nc3c(C)n[nH]c3C)C2)n1 (stereo unspecified) | -7.16 |
| COc1ccnc(N2CCC3(CCCN(C(C)C)C3=O)C2)n1 (stereo unspecified) | -1.71 |
| COc1cccc(OCc2cc(C(=O)NC[C@@H]3CCCN3)n[nH]2)c1 | 0.523 |
| O=C(NCC1CC1)C1CCC2(CCN(C(=O)c3ccco3)CC2)O1 (stereo unspecified) | -15.5 |
| CCc1ccccc1Nc1noc2c1CN(C(=O)CCOC)CC2 | 18.8 |
| CCNC(=O)N1CCC2(CC1)CCn1c(-c3cccc(OC)c3)cnc12 | -6.74 |
| O=C(C1CCOC1)N1CC[C@@H](O)[C@@H]1Cc1ccccc1 (stereo partly specified) | -12.1 |
| Cc1nc(-c2ccc(F)cc2)cc(C2CCNCC2)n1 | -10 |
| COCCN1CC2(CCCN(C(=O)CCCc3cccs3)C2)CCC1=O (stereo unspecified) | 9.49 |
| COc1cc2c(cc1-c1nc3c(cnn3C(C)C)[nH]1)OCO2 | -0.0981 |
| COc1cc(CCC(=O)N2CCC(c3cncc(C)n3)CC2)on1 | -3.99 |
| CCOCC1CN(S(=O)(=O)N(C)C)Cc2cnn(CC3CC3)c21 (stereo unspecified) | 2.18 |
| CN(CC(=O)N1CCCCC1Cn1cccn1)C1CC1 (stereo unspecified) | 4.49 |
| CCc1nc(CC(=O)N2CCn3c(C)nnc3C2)cs1 | -6.05 |
| CCc1nc(C)c([C@H]2CN(C)C[C@@H]2C(=O)NC(C)(C)c2ccccc2)[nH]1 | -6.37 |
| CNc1cc2c(nn1)CCN(C(=O)c1cc(C)n(C3CC3)c1C)C2 | 15.8 |
| N#CCCCS(=O)(=O)NC(=O)c1ccccc1F | -0.732 |
| Fc1cc(Cl)cnc1N1CCCC(c2nccn2Cc2ccccn2)C1 (stereo unspecified) | 10.1 |
| Cc1nnc(CN2CCN(CC(O)c3cccc(F)c3)CC2)n1C (stereo unspecified) | -15.6 |
| OC(COCc1cccs1)CSc1nnc2ccccn12 (stereo unspecified) | 22.9 |

| SMILES | cytotoxicity at 70.5 h [%] |
| --- | --- |
| CC(C)c1nccc([C@@H]2C[C@@H]3CCN(Cc4ccoc4)C[C@H]3O2)n1 | -4.41 |
| CSc1cc2c(cc1NC(=O)NCc1ccco1)OCCO2 | -5.54 |
| CC(C)c1nccn1C1CCCN(C(=O)c2ccc3[nH]nnc3c2)C1 (stereo unspecified) | 30.1 |
| NC(=O)CN(CC(=O)NCCc1c(F)cccc1F)C1CCCC1 | 23.5 |
| CCC(NC(=O)Cn1ccc(=O)n(C)c1=O)c1ccc(OC)cc1 (stereo unspecified) | -9.09 |
| O=c1[nH]ncc(NCCOc2ccc3c(c2)OCO3)c1Cl | -8.71 |
| CC(C)=CCN1C[C@H]2CC[C@@H]1CN(Cc1coc(C)n1)C2 | -5.37 |
| CC(CO)N1CCN(C(=O)OC(C)(C)C)CC1 (stereo unspecified) | -6.8 |
| Cc1cc(CN(C)C(=O)c2cccc(N3CCCC3=O)c2)no1 | -9.25 |
| CCC(NS(=O)(=O)c1ccc(C(=O)NC2CC2)cc1)c1cnn(C)c1 (stereo unspecified) | -8.25 |
| CC1CN(Cc2cccnc2)CCN1c1ccc2nncn2n1 (stereo unspecified) | -8.86 |
| CN1CCCC1CNC(=O)CCCOc1ccc(Br)cc1 (stereo unspecified) | -3.72 |
| c1ccc(CN2C[C@H]3CCC[C@@]3(COCC3CC3)C2)nc1 | -0.925 |
| Cc1[nH]ncc1C(=O)N(CC(C)C)CC(O)c1ccc(F)cc1 (stereo unspecified) | 14.2 |
| CC1COCCN1C(=O)COc1cccc(Oc2ccccn2)c1 (stereo unspecified) | -9.57 |
| CCN(C)S(=O)(=O)N1CCCC(CO)(CC=C(C)C)C1 (stereo unspecified) | -2.99 |
| CCCS(=O)(=O)N1CCC(NC(=O)c2ccc(C)s2)CC1 | -8.95 |
| CCc1nc(C2CCCN2C(=O)c2cnns2)no1 (stereo unspecified) | -8.27 |
| CN(C)C(=O)N1CCC(C(=O)N2CCOC(CC3CCCCC3)C2)CC1 (stereo unspecified) | -0.504 |
| O=C(NCCc1cccs1)[C@H]1CO[C@H]2CCN(C3CCC3)C[C@H]2C1 | -0.468 |
| CC(NCCCc1cnn(C)c1)c1ccc(Cl)s1 (stereo unspecified) | 2.71 |
| COCCN1C[C@@H]2[C@@H](OC)CCN(Cc3ccc(C)o3)[C@@H]2C1 | -1.05 |
| Cc1nc(N(C)C)ncc1C(=O)N(Cc1ccncc1)CC1CCCO1 (stereo unspecified) | -4.9 |

| SMILES | cytotoxicity at 70.5 h [%] |
| --- | --- |
| Cc1cccc(N2CCOCC3(C2)CN(c2cccnc2)C(=O)CO3)n1 (stereo unspecified) | -4.82 |
| CNC(=O)N1C[C@H]2CC[C@@]3(N=C(c4ccccc4)NC3=O)[C@H]2C1 | -6.95 |
| CCc1cnc(C)nc1N1CCC(Cc2cccc(C(=O)O)c2)C1 (stereo unspecified) | -7.7 |
| CN(c1cccnn1)C1CCN(C(=O)c2ccc3c(c2)COC3)CC1 | -13.7 |
| CN(C)CCN(C)C(=O)c1cnc2c(c1)nc(-c1ccccc1Cl)n2C | -5.91 |
| Cc1cc2c(=O)n3c(nc2s1)CCN(C(=O)c1cnn(C)c1)CC3 | -7.07 |
| Cn1c(CN2CCOCC2)nnc1C1CCN(C(=O)C2CCCC2)CC1 | 2.41 |
| O=C(NCC1CC1)C1=NOC2(CCN(S(=O)(=O)Cc3ccccc3)C2)C1 (stereo unspecified) | -5.14 |
| N#Cc1ccccc1CN(CC(N)=O)C1CCCC1 | -7.95 |
| CN(C)CC(=O)N1CCc2sc(C(=O)NCC3CC3)cc21 | -12.2 |
| Cc1cccnc1[C@H](C)NC(=O)c1cccc(CC2CCNCC2)c1 | 0.55 |
| COCCC1(C(=O)O)CCCN(CCOCc2ccccc2)C1 (stereo unspecified) | -3.38 |
| Cc1cccc(CN2C[C@@H]3COC[C@]3(COc3ccc(C#N)cn3)C2)n1 | -0.115 |
| CN(C(=O)Cc1cccs1)C1CCN(c2ccccn2)CC1 | -5.49 |
| Cc1nn(Cn2ccc(C(=O)N3CCCC3)n2)c(C)c1Cl | -9.33 |
| CC1CCC(O)(CN2CCN(CCNC(=O)C3CCC3)CC2)CC1 (stereo unspecified) | -14.6 |
| c1ccc2c(c1)CC(N1CCCC(NCc3cccc4nonc34)C1)C2 (stereo unspecified) | -9.28 |
| CCCn1cc(C(=O)NC(CC(=O)O)c2ccco2)c(C)n1 (stereo unspecified) | -8.82 |
| O=S(=O)(c1ccccc1)N1C[C@@H]2COC[C@]2(COCC2CC2)C1 | 1.08 |
| O=C(Nc1cccc(C(F)(F)F)c1)N1CCN(CCn2ccnc2)CC1 | -10.1 |
| Nc1nccnc1C(=O)NC1CCCN(Cc2c(F)cccc2F)C1 (stereo unspecified) | -16.3 |
| COc1cc(C2(C(=O)NC3CCN(C4CC4)CC3)CC2)ccc1C | -4.2 |
| CCOC(=O)CNC(=O)N1CCOC(Cc2ccc(OC)cc2)C1 (stereo unspecified) | -0.738 |

| SMILES | cytotoxicity at 70.5 h [%] |
| --- | --- |
| CCS(=O)(=O)Nc1ccc2c(c1)OCC(C)(C)C(=O)N2C | 19 |
| Cc1noc(C)c1CN(C)CCc1nc(-c2cccc(Cl)c2)no1 | -10.4 |
| O=C(Cn1ncc(N2CCNCC2)cc1=O)NCCc1ccc(F)cc1 | -3.8 |
| CN(C)C(=O)NCc1cc2n(n1)CCN(C[C@H]1[C@@H]3CNC[C@@H]31)C2 | 15.7 |
| NC(=O)c1ccc(CNC(=O)NCc2cc[nH]n2)cc1 | -12.2 |
| Cc1nc(C(C)C)sc1C(=O)NS(=O)(=O)c1ccc(C#N)cc1 | -9.15 |
| CN(C)S(=O)(=O)c1ccc(F)c(NC(=O)COCC2CC2)c1 | -10.8 |
| O=C1N(CCCc2ccccc2)CCCC1(O)CNCc1ccccc1 (stereo unspecified) | -10.4 |
| Cc1ccc(N2CC3(COCCN(Cc4ccncc4)C3)OCC2=O)s1 (stereo unspecified) | 3.84 |
| CC(C)c1nn(C)cc1CNC1CCOc2ccccc21 (stereo unspecified) | -7.85 |
| Cc1nnc(NC(=O)NC(C)C(=O)NC2CCCC2)s1 (stereo unspecified) | -3.86 |
| Cc1ccccc1-c1cc(C(=O)N2CCn3c(C)nnc3C2)[nH]n1 | 0.102 |
| Cc1c(C(N)=O)sc2nc(C(F)(F)F)ccc12 | 19.9 |
| CN(C)C(=O)c1cccnc1SCc1ccccc1C#N | -4.31 |
| COCC(=O)N1CCC(Oc2cccc(C)c2)CC1 | -16 |
| COc1ccc2c(c1)CC(C(=O)N(C)Cc1noc3c1CCCC3)CO2 (stereo unspecified) | -4.86 |
| O=C(C1CCC1)N1CCCC(c2ccnc(Nc3cnccn3)n2)C1 (stereo unspecified) | -7.38 |
| CNc1cc(C)nc(N2CCC3(CC2)[C@H](O)C[C@@H]3OCCN(C)C)n1 | -1.9 |
| CCS(=O)(=O)NCCNC(=O)N(Cc1ccc(C)o1)C(C)C | -13.2 |
